Experimental data published in PubChem BioAssay AID1918958 (Molecular Pharmacology Branch, DTP, NCI, 2023).

System: NCI-H196 complex spheroid viability
Assay: Anticancer human tumor NCI-H196 cell line growth inhibition [LSD1];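 further: spheroids exposed to agents for 7 days before readout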;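 on viability, T/C: 100% = DMSO vehicle control viability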
Settings: for IC50: curve of first compound; for viability, T/C: stronger effect = lower value; active means viability on the fitted dose curve at most 10% of control; inactive means the rest
Outline: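 Complex spheroids of tumor cells with HUVEC and human MSCs, exposed to iadademstat combined with other agents. Each agent tested in half-log steps from near clinical Cmax (else 10 microM top), DMSO ≤0.25%.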

Nc1ccccc1NC(=O)c1ccc(CNC(=O)OCc2cccnc2)cc1 + NC1CCC(NC2CC2c2ccccc2)CC1
88.6 nM: IC50 (second compound 1 µM)
59.3 nM: IC50 (second compound 0.316 µM)
73.5 nM: IC50 (second compound 10 µM)
62.2 nM: IC50 (second compound 0.1 µM)
active: viability, T/C (second compound 0.1 µM, first compound 0.949 µM) 0.32% | viability, T/C (second compound 0.1 µM, first compound 3 µM) 1.24% | viability, T/C (second compound 0.316 µM, first compound 0.949 µM) 0.27% | viability, T/C (second compound 0.316 µM, first compound 3 µM) 0.3% | viability, T/C (second compound 1 µM, first compound 0.949 µM) 0.24% | viability, T/C (second compound 1 µM, first compound 3 µM) 0.35% | viability, T/C (second compound 3.16 µM, first compound 0.3 µM) 10.2% | viability, T/C (second compound 3.16 µM, first compound 0.949 µM) 0.27% | viability, T/C (second compound 3.16 µM, first compound 3 µM) 0.26% | viability, T/C (second compound 10 µM, first compound 0.949 µM) 1.12% | viability, T/C (second compound 10 µM, first compound 3 µM) 0.38%
inactive: viability, T/C (second compound 0.1 µM, first compound 0.00949 µM) 82.9% | viability, T/C (second compound 0.1 µM, first compound 0.03 µM) 66.6% | viability, T/C (second compound 0.1 µM, first compound 0.0949 µM) 41% | viability, T/C (second compound 0.1 µM, first compound 0.3 µM) 12% | viability, T/C (second compound 0.316 µM, first compound 0.00949 µM) 81.2% | viability, T/C (second compound 0.316 µM, first compound 0.03 µM) 69.3% | viability, T/C (second compound 0.316 µM, first compound 0.0949 µM) 36.4% | viability, T/C (second compound 0.316 µM, first compound 0.3 µM) 11.9% | viability, T/C (second compound 1 µM, first compound 0.00949 µM) 84.8% | viability, T/C (second compound 1 µM, first compound 0.03 µM) 73.3% | viability, T/C (second compound 1 µM, first compound 0.0949 µM) 49.9% | viability, T/C (second compound 1 µM, first compound 0.3 µM) 12.2% | viability, T/C (second compound 3.16 µM, first compound 0.00949 µM) 85.3% | viability, T/C (second compound 3.16 µM, first compound 0.03 µM) 78.9% | viability, T/C (second compound 3.16 µM, first compound 0.0949 µM) 43.4% | viability, T/C (second compound 10 µM, first compound 0.00949 µM) 89.7% | viability, T/C (second compound 10 µM, first compound 0.03 µM) 73.6% | viability, T/C (second compound 10 µM, first compound 0.0949 µM) 44.3% | viability, T/C (second compound 10 µM, first compound 0.3 µM) 12.1%
77.4 nM: IC50 (second compound 3.16 µM)

O=C(c1cc(Cc2n[nH]c(=O)c3ccccc23)ccc1F)N1CCN(C(=O)C2CC2)CC1 + NC1CCC(NC2CC2c2ccccc2)CC1
> 10000 nM: IC50 (second compound 0.1 µM) | IC50 (second compound 0.316 µM) | IC50 (second compound 1 µM) | IC50 (second compound 3.16 µM) | IC50 (second compound 10 µM)
inactive: viability, T/C (second compound 0.1 µM, first compound 0.0316 µM) 91.8% | viability, T/C (second compound 0.1 µM, first compound 0.1 µM) 97.9% | viability, T/C (second compound 0.1 µM, first compound 0.316 µM) 91.7% | viability, T/C (second compound 0.1 µM, first compound 1 µM) 86.5% | viability, T/C (second compound 0.1 µM, first compound 3.16 µM) 93.5% | viability, T/C (second compound 0.1 µM, first compound 10 µM) 88.3% | viability, T/C (second compound 0.316 µM, first compound 0.0316 µM) 89.8% | viability, T/C (second compound 0.316 µM, first compound 0.1 µM) 103% | viability, T/C (second compound 0.316 µM, first compound 0.316 µM) 97.8% | viability, T/C (second compound 0.316 µM, first compound 1 µM) 94.8% | viability, T/C (second compound 0.316 µM, first compound 3.16 µM) 83.4% | viability, T/C (second compound 0.316 µM, first compound 10 µM) 83% | viability, T/C (second compound 1 µM, first compound 0.0316 µM) 89.9% | viability, T/C (second compound 1 µM, first compound 0.1 µM) 91.4% | viability, T/C (second compound 1 µM, first compound 0.316 µM) 95.6% | viability, T/C (second compound 1 µM, first compound 1 µM) 83.5% | viability, T/C (second compound 1 µM, first compound 3.16 µM) 89% | viability, T/C (second compound 1 µM, first compound 10 µM) 80.1% | viability, T/C (second compound 3.16 µM, first compound 0.0316 µM) 91% | viability, T/C (second compound 3.16 µM, first compound 0.1 µM) 87% | viability, T/C (second compound 3.16 µM, first compound 0.316 µM) 88% | viability, T/C (second compound 3.16 µM, first compound 1 µM) 87.4% | viability, T/C (second compound 3.16 µM, first compound 3.16 µM) 85.7% | viability, T/C (second compound 3.16 µM, first compound 10 µM) 87.5% | viability, T/C (second compound 10 µM, first compound 0.0316 µM) 89.9% | viability, T/C (second compound 10 µM, first compound 0.1 µM) 90.2% | viability, T/C (second compound 10 µM, first compound 0.316 µM) 88.1% | viability, T/C (second compound 10 µM, first compound 1 µM) 89.5% | viability, T/C (second compound 10 µM, first compound 3.16 µM) 85.7% | viability, T/C (second compound 10 µM, first compound 10 µM) 86.8%
